Laboratory results from patent US20030134859A1 (SANKYO COMPANY, LIMITED, priority 2000, published 2003).

Tested on: Rat white adipocytes
Assay: Inhibition of the differentiation of adipocytes (Oil Red O)
Format: cell-based
Conditions: 100 nM test compound, 5 days, Oil Red O ABS550, control = 100%, blank = 0%, Table 3; for activity at 0.1 µM: Rattus norvegicus, Adipocyte, 120 h, read-out: Rate of Differentiation (%)
In short: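 Rat white preadipocytes, 5,000 cells/well, given differentiation medium with compound at 100 nM final (0.1% DMSO) for 5 days at 37 °C. Lipid stained with Oil Red O, eluted in DMSO, read at 550 nm; differentiation % relative to DMSO control (100%) and blank (0%).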

Compound	activity at 0.1 µM	Rate of Differentiation (%)
CCOC(=O)NC(=S)Nc1ccc(-c2ccc(NC(=O)c3cc([N+](=O)[O-])ccc3Cl)cc2)cc1 [Example 251, N-[4-[4-(Ethoxycarbonylaminothiocarbonylamino)phenyl]phenyl]-(2-chloro-5-nitrophenyl)carboxamide]	39.9%	–
O=C(Nc1ccc(-c2ccc(NC(=S)Nc3ccccc3)cc2)cc1)c1cc([N+](=O)[O-])ccc1Cl [Example 252, N-[4-[4-(Phenylaminothiocarbonylamino)phenyl]phenyl]-(2-chloro-5-nitrophenyl)carboxamide]	36.7%	–
O=C(Nc1ccc(-c2ccc(NC(=O)c3cc([N+](=O)[O-])ccc3Cl)cc2)cc1)Nc1ccccc1[N+](=O)[O-] [Example 254, N-[4-[4-(2-Nitrophenylaminocarbonylamino)phenyl]phenyl]-(2-chloro-5-nitrophenyl)carboxamide]	52.8%	–
O=C(NC(=S)NCCc1ccc(NC(=O)c2cc([N+](=O)[O-])ccc2Cl)cc1)c1ccccc1 [Example 271, N-[4-(2-Phenylcarbonylaminothiocarbonylaminoethyl)phenyl]-(2-chloro-5-nitrophenyl)carboxamide]	45.4%	–
CCS(=O)(=O)N(c1ccc(-c2ccc(NC(=O)c3cc([N+](=O)[O-])ccc3Cl)cc2)cc1)S(=O)(=O)CC [Example 276, N-[4-[4-(N,N-Diethanesulfonylamino)phenyl]phenyl]-(2-chloro-5-nitrophenyl)carboxamide]	14.9%	–
N-[4-(4-Methylbenzoylamino)phenyl]phenyl]-(2-chloro-5-nitrophenyl)carboxamide [Example 122]	–	78.4%
N-[4-(Benzenesulfonylaminophenyl)phenyl]-(2-chloro-5-nitrophenyl)carboxamide [Example 128]	–	35.4%
N-[4-[4-(Pyrrolidin-1-ylamino)phenyl]phenyl]-(2-chloro-5-nitrophenyl)carboxamide [Example 171]	–	43.0%
